Common to all, as to type: in vivo
In series [1] the test system is Zea mays (Corn). As to the kind of experiment: Pre-emergence, damage of crop plants. As to conditions: Dosage 320/ha (Table G). An excerpt: (§1) Seeds of monocotyledonous and dicotyledonous weed plants and crop plants are laid out in wood-fiber pots in sandy loam and covered with soil. The compounds according to the invention, formulated in the form of wettable powders (WP) or as emulsion concentrates (EC), are then applied to the surface of the soil cover in the form of an aqueous suspension or emulsion at a water application rate equating to 600 to 800 l/ha, with addition of 0.2% wetting agent. After the treatment, the pots are placed in a greenhouse and kept under good growth conditions for the test plants. The damage to the test plants is assessed visually after a test period of 3 weeks by comparison with untreated controls (herbicidal activity in percent (%): 100% activity=the plants have died, 0% activity=like control plants). Here, for example, compounds No. 1-163, 1-171, 1-172, 1-283, 1-284, 1-294, 1-295, 1-334, 10-001 and 11-343, at an application rate of 320 g/ha, have an activity of at least 80% against Veronica persica.
(§2) In the tables below, the properties of the compounds according to the invention are compared to those of the structurally most similar compounds known from WO 2012/028579 A1. These tests were carried out by the pre- and post-emergence method under the conditions mentioned under item 1 and item 2. Here, the herbicidal activity against various harmful plants and the damage of some important crop plants were compared at different dosages.

Series [2] deals with Brassica napus (Oilseed Rape). The experiment in a line: Pre-emergence, damage of crop plants. As to conditions: Dosage 320/ha (Table G).
Source text: as §1, §2

The subject of series [3] is Oryza sativa (Rice). The experiment in a line: Pre-emergence, damage of crop plants. As to conditions: for damage of crop plants ORYZA: Dosage 320/ha (Table G).
Source text: as §1, §2

In a further series the test system is Pharbitis purpureum. As to the kind of experiment: Post-emergence herbicidal action. The conditions noted are these: Dosage 20/ha (Table S). How it is done: (§3) Seeds of monocotyledonous and dicotyledonous weed plants and crop plants are laid out in wood fiber pots in sandy loam, covered with soil and cultivated in a greenhouse under good growth conditions. 2 to 3 weeks after sowing, the test plants are treated at the one-leaf stage. The compounds according to the invention, formulated in the form of wettable powders (WP) or as emulsion concentrates (EC), are then sprayed onto the green parts of the plants in the form of an aqueous suspension or emulsion at a water application rate equating to 600 to 800 l/ha, with addition of 0.2% wetting agent. After the test plants have been left to stand in the greenhouse under optimal growth conditions for about 3 weeks, the action of the preparations is assessed visually in comparison to untreated controls (herbicidal action in percent (%): 100% activity=the plants have died, 0% activity=like control plants). Here, for example, compounds No. 1-163, 1-171, 1-172, 1-173, 1-254, 1-283, 1-284, 1-293, 1-294 and 1-334, at an application rate of 80 g/ha, have an activity of at least 80% against Abutilon theophrasti and Amaranthus retroflexus.
as §2

The subject of series [4] is Zea mays (Corn). As to the kind of experiment: Post-emergence, damage of crop plants. The conditions noted are these: for damage of crop plants, Crop plants ZEAMX: Dosage 20/ha (Table S). How it is done: as §3, §2
In series [5] the test system is Oryza sativa (Rice). The experiment in a line: Post-emergence, damage of crop plants. The conditions noted are these: for damage of crop plants, Crop plants ORYZA: Dosage 20/ha (Table S). As to the method:
as §3, §2

The test system of series [6] is Triticum aestivum (Wheat). As to the kind of experiment: Post-emergence, damage of crop plants. As to conditions: Dosage 20/ha (Table S). How it is done:
as §3, §2

In a further series the test system is Veronica persica. The experiment in a line: Post-emergence herbicidal action. As to conditions: Dosage 5/ha (Table T). As to the method:
as §3, §2

The subject of the next series is Stellaria media. The experiment in a line: Post-emergence herbicidal action. As to conditions: Dosage 5/ha (Table T). How it is done: as §3, §2
The next series has as its system Echinochloa crus galli. As to the kind of experiment: Pre-emergence herbicidal action. The conditions noted are these: Dosage 80/ha (Table H).
Source text: as §1, §2

The test system of another series is Matricaria inodora. As to the kind of experiment: Pre-emergence herbicidal action. As to conditions: Dosage 80/ha (Table H).
Source text: as §1, §2

In the case of `C[S+]([O-])c1c(C(F)(F)F)ccc(C(=O)Nc2ncco2)c1Cl` (centres unmarked) [1-294], in the series with Zea mays (Corn) [1], the “damage of crop plants ZEAMX” value worked out at 0%. In addition, the “damage of crop plants BRSNW” value in series [2] stood at 20%. For the same molecule, the “damage of crop plants ORYZA” value with Oryza sativa (Rice) [3] is reported as 30%. Also, in the series on Pharbitis purpureum, the “herbicidal activity, Harmful plant PHBPU” value stood at 70%. The “damage of crop plants, Crop plants ZEAMX” value in the series on Zea mays (Corn) [4] turned out to be 0%. Also, in the series on Oryza sativa (Rice) [5], the “damage of crop plants, Crop plants ORYZA” value is recorded as 0%. In addition, in [6], the “damage of crop plants, Crop plants TRZAS” value was found to be 0%.

Regarding `Cn1ncnc1NC(=O)c1ccc(C(F)(F)F)nc1Cl` [WO 2012/028579, No. 8-9], in the series on Veronica persica, the “herbicidal activity against harmful plants VERPE” value is reported as 60%. The “herbicidal activity against harmful plants STEME” value with Stellaria media is reported as 10%. Further, in the series on Echinochloa crus galli, the “herbicidal activity against harmful plants ECGCG” value stood at 0%. Moreover, in the series on Matricaria inodora, the “herbicidal activity against harmful plants MATIN” value stood at 60%.

Regarding `Cn1nnnc1NC(=O)c1ccc(C(F)(F)F)c([S+](C)[O-])c1Cl` (centres unmarked) [WO 2012/028579, No. 4-639], the “damage of crop plants ZEAMX” value in the series with Zea mays (Corn) [1] worked out at 40%. The “damage of crop plants BRSNW” value in [2] is on record as 90%. The “damage of crop plants ORYZA” value with Oryza sativa (Rice) [3] is on record as 90%. Further, in the series with Pharbitis purpureum, the “herbicidal activity, Harmful plant PHBPU” value amounted to 40%. For the same molecule, the “damage of crop plants, Crop plants ZEAMX” value in the series with Zea mays (Corn) [4] stood at 80%. For the same molecule, the “damage of crop plants, Crop plants ORYZA” value with Oryza sativa (Rice) [5] amounted to 60%. In addition, the “damage of crop plants, Crop plants TRZAS” value in [6] was 100%.

As to `O=C(Nc1ncco1)c1ccc(C(F)(F)F)nc1Cl` [10-1], the “Damage of ORYZA” value in the series with Oryza sativa (Rice) [3] (20 g/ha (Table I)) and with Oryza sativa (Rice) [3] (80 g/ha (Table I)) was 0% throughout. The “herbicidal activity against harmful plants VERPE” value in the series on Veronica persica came out at 90%. Also, the “herbicidal activity against harmful plants STEME” value in the series on Stellaria media stood at 40%. Further, the “herbicidal activity against harmful plants ECGCG” value in the series on Echinochloa crus galli was 70%. The “herbicidal activity against harmful plants MATIN” value with Matricaria inodora is given as 90%. Moreover, the “damage of crop plants ZEAMX” value with Zea mays (Corn) [4] (Dosage 80 g/ha (Table U)) worked out at 0%. For the same molecule, the “damage of crop plants ORYZA” value in the series with Oryza sativa (Rice) [5] (Dosage 80 g/ha (Table U)) is given as 0%.
